Earlier results on seven molecules are cited in PubChem BioAssay AID1259410 (Chemical Carcinogenesis Research Information System (CCRIS), 2018).

The subject of this data set is rodent tumor promotion studies, tumor incidence. Nature of the data set: CCRIS tumor promotion studies.
The mark [1] stands for this setting: Carcinogen: 7,12-DIMETHYLBENZ(A)ANTHRACENE, Doses [Carcinogen]: TOP, Route [Carcinogen]: DERMAL, Route [Promoter]: DERMAL, Species: MOUSE, Strain/Sex: FEMALE.

Consider `CSCC[C@H](NC(=O)[C@H](CC(C)C)NC(=O)CNC(=O)[C@H](Cc1ccccc1)NC(=O)[C@H](Cc1ccccc1)NC(=O)[C@H](CCC(N)=O)NC(=O)[C@H](CCC(N)=O)NC(=O)[C@@H]1CCCN1C(=O)[C@H](CCCCN)NC(=O)[C@@H]1CCCN1C(=O)[C@@H](N)CCCN=C(N)N)C(N)=O`, for which the outcome (Carcinogen: N-METHYL-N'-NITRO-N-NITROSOGUANIDINE, 70-25-7, Doses [Carcinogen]: 50 UG/ML IN DRINKING WATER FOR 25 WK, Doses [Promoter]: 0, 12 UG/KG BW 1/2 D FOR 26 WK BEGINNING POST CARCINOGEN TREATMENT (STUDY DURATION: 52 WK), Route [Carcinogen]: ORAL, Route [Promoter]: SUBCUTANEOUS, Species: RAT, Strain/Sex: WISTAR/MALE, FEMALE) is given as “stomach: tumor”.

With `Cc1ccc(O)cc1C`, the outcome under setting [1] is given as “integumentary system (skin)”.

For the molecule `O=NO`, the outcome (Carcinogen: 1,2-DIMETHYLHYDRAZINE [540-73-8], Doses [Carcinogen]: 8 MG/KG, Doses [Promoter]: 50, 500 MG, Route [Promoter]: INJECTION, Species: MOUSE, Strain/Sex: (C57B1 X CBA)/MALE) is listed as “liver: hepatocarcinoma, hepatic hemangioendothelioma; kidney: renal adenoma; inc”; the outcome (Carcinogen: Diethyl nitrosamine (DEN), 55-18-5 and dimethylhydrazine (DMH), 30260-66-3, Carcinogen: Diethyl nitrosamine (DEN), 55-18-5 and dimethylhydrazine (DMH), 30260-66-3, Doses [Carcinogen]: DEN, 200 mg/kg once at -3 days, DMH, 40 mg/kg 4 injections between day 0 and wk 2, Doses [Promoter]: 0, 0.1, 0.2% in drinking water from week 2 to 29, study duration 29 wk, Doses [Promoter]: 0, 0.1, 0.2% in drinking water from week 2 to 29, study duration 29 wk, Route [Carcinogen]: Intraperitoneal (DEN) and subcutaneous (DMH), Route [Promoter]: Oral, Species: Rat, Strain/Sex: F344/Du Crj (20/group)) is “liver: hepatocellular adenoma and carcinoma. colon adenoma and carcinoma. incide”; the outcome (Carcinogen: N-METHYL-N'-NITRO-N-NITROSOGUANIDINE, 70-25-7, Doses [Carcinogen]: 150 MG/KG BW IN DMSO:WATER (1:1) ONCE, Doses [Promoter]: 0, 0.3% IN DRINKING WATER BEGINNING 1 WK POST CARCINOGEN DOSE (STUDY DURATION: 52 WK), Route [Carcinogen]: GAVAGE, Route [Promoter]: ORAL, Species: RAT, Strain/Sex: F344/MALE) is given as “forestomach: papilloma, squamous cell carcinoma”; the outcome (Carcinogen: N-bis(2-hydroxypropyl)nitrosamine (DHPN) (53609-64-6), Doses [Carcinogen]: 0.1% (w/v) in drinking water for 3 wk, then surgery for acid reflux esophagitis, study duration 34 wk, Doses [Promoter]: 0 (basal diet), 0.2% sodium nitrite, 1% ascorbic acid with 0.2% sodium nitrite, study duration 32 wk after first promote, Doses [Promoter]: 0 (basal diet), 0.2% sodium nitrite, 1% ascorbic acid with 0.2% sodium nitrite, study duration 32 wk after first promote, Route [Carcinogen]: Oral, Route [Promoter]: Oral, Species: Rat, Strain/Sex: F344/Male (24/group)) was “esophagus (p1-p4): papilloma; significant only for combined treatment in p4 segm”; the outcome (Carcinogen: N-methyl-N'-nitro-N-nitrosoguanidine (70-25-7), Doses [Carcinogen]: 0.01% in drinking water for 10 wk for initiation of glandular stomach tumors, 100 mg/kg intragastrically after 16 hr st, Doses [Promoter]: 0.05%, 0.1%, or 0.2% in drinking water from wk 11 to end of study in combination with 0.1% or 1.0% vitamin C in diet (, Route [Carcinogen]: Oral and Intragastric, Route [Promoter]: Oral, Species: Rat, Strain/Sex: F344/Male (15/15)/(14/15)(15/15)(15/15)(15/15)(15/15)(14/15)) was “forestomach: papilloma, squamous cell carcinoma increase in incidence and/or sev”; the outcome (Carcinogen: URETHANE, 51-79-6, Doses [Carcinogen]: 0.5 MG/G BW 1/WK FOR 2 WK, Doses [Promoter]: 0, 50 MG/L IN DRINKING WATER FOR THE DURATION OF STUDY BEGINNING 4 WK PRIOR TO CARCINOGEN TREATMENT (STUDY DURATION: 210, Route [Carcinogen]: INTRAPERITONEAL, Route [Promoter]: ORAL, Species: MOUSE, Strain/Sex: A/SNELL/FEMALE) was “lung: adenoma”. The outcome is, setting by setting: (Carcinogen: URETHANE, 51-79-6, Doses [Carcinogen]: 0.5 MG/G BW 1/WK FOR 2 WK, Doses [Promoter]: 0, 50 MG/L IN DRINKING WATER FOR THE DURATION OF STUDY BEGINNING 4 WK PRIOR TO CARCINOGEN TREATMENT (STUDY DURATION: 210, Route [Carcinogen]: INTRAPERITONEAL, Route [Promoter]: ORAL, Species: MOUSE, Strain/Sex: C57BL X CBA/ FEMALE) “lung: adenoma”; (Carcinogen: URETHANE, 51-79-6, Doses [Carcinogen]: 0.5 MG/G BW/WK FOR 2 WK, Doses [Promoter]: 0, 50, 500 MG/L IN DRINKING WATER FOR THE DURATION OF STUDY BEGINNING 4 WK PRIOR TO CARCINOGEN TREATMENT (STUDY DURATION, Doses [Promoter]: 0, 50, 500 MG/L IN DRINKING WATER FOR THE DURATION OF STUDY BEGINNING 4 WK PRIOR TO CARCINOGEN TREATMENT (STUDY DURATION, Route [Carcinogen]: INTRAPERITONEAL, Route [Promoter]: ORAL, Species: MOUSE, Strain/Sex: A/SNELL) “lung: adenoma”; (Carcinogen: URETHANE, 51-79-6, Doses [Carcinogen]: 0.5 MG/G BW/WK FOR 2 WK, Doses [Promoter]: 0, 50, 500 MG/L IN DRINKING WATER FOR THE DURATION OF STUDY BEGINNING 4 WK PRIOR TO CARCINOGEN TREATMENT (STUDY DURATION, Doses [Promoter]: 0, 50, 500 MG/L IN DRINKING WATER FOR THE DURATION OF STUDY BEGINNING 4 WK PRIOR TO CARCINOGEN TREATMENT (STUDY DURATION, Route [Carcinogen]: INTRAPERITONEAL, Route [Promoter]: ORAL, Species: MOUSE, Strain/Sex: C57BLXCBA) “lung: adenoma”.

Take `C#C[C@]1(O)CC[C@H]2[C@@H]3CCc4cc(OC)ccc4[C@H]3CC[C@@]21C`: the outcome (Carcinogen: DIETHYLNITROSAMINE, 55-18-5, Doses [Carcinogen]: 20 MG/KG IN 0.85% SALINE ONCE PRECEDED 24 HR BY 2/3 PARTIAL HEPATECTOMY, Doses [Promoter]: 0, 0.1, 0.5 PPM IN DIET FOR 12 MO BEGINNING 24 HR POST CARCINOGEN (STUDY DURATION: 12 MO), Doses [Promoter]: 0, 0.1, 0.5 PPM IN DIET FOR 12 MO BEGINNING 24 HR POST CARCINOGEN (STUDY DURATION: 12 MO), Route [Carcinogen]: INTRAPERITONEAL, Route [Promoter]: ORAL, Species: RAT, Strain/Sex: CD-1/FEMALE) is “liver: hepatocellular carcinoma”.

For the molecule `CNC[C@H](O)c1cccc(O)c1`, the outcome runs as follows: (Carcinogen: N-METHYL-N'-NITRO-N-NITROSOGUANIDINE, 70-25-7, Doses [Carcinogen]: 25 UG/ML IN DRINKING WATER FOR 20 WK, Doses [Promoter]: 0, 6 MG/KG BW IN OLIVE OIL 1/2 D BEGINNING POST CARCINOGEN TREATMENT (STUDY DURATION: 52 WK), Route [Carcinogen]: ORAL, Route [Promoter]: SUBCUTANEOUS, Species: RAT, Strain/Sex: WISTAR/MALE) “stomach: adenocarcinoma”; (Carcinogen: N-METHYL-N'-NITRO-N-NITROSOGUANIDINE, 70-25-7, Doses [Carcinogen]: 25 UG/ML IN DRINKING WATER FOR 25 WK, Doses [Promoter]: 0, 6 MG/KG BW 1/2 D FOR 27 WK BEGINNING POST CARCINOGEN TREATMENT (STUDY DURATION: 52 WK), Route [Carcinogen]: ORAL, Route [Promoter]: SUBCUTANEOUS, Species: RAT, Strain/Sex: WISTAR/MALE) “glandular stomach: adenocarcinoma”.

On to `O=C(O)/C=C/c1ccc(O)c(O)c1`, for which the outcome was “forestomach: papilloma” (Carcinogen: DIETHYLNITROSAMINE, 55-18-5, N-METHYLNITROSOUREA, 684-93-5, 1,2-DIMETHYLHYDRAZINE, 540-73-8, N-BUTYL-N-(4-HYDROXYBUTYL)N, Carcinogen: DIETHYLNITROSAMINE, 55-18-5, N-METHYLNITROSOUREA, 684-93-5, 1,2-DIMETHYLHYDRAZINE, 540-73-8, N-BUTYL-N-(4-HYDROXYBUTYL)N, Doses [Carcinogen]: 100 MG/KG BW DEN ONCE FOLLOWED BY 20 MG/KG BW MNU 2/WK FOR 2 WK THEN 40 MG/KG BW DMH 2/WK FOR THE NEXT 2WK, 0.05% BBN IN, Doses [Promoter]: 0, 0.4% IN DIET FOR 24 WK BEGINNING POST CARCINOGEN TREATMENT (STUDY DURATION: 28 WK), Route [Carcinogen]: INTRAPERITONEAL, INTRAPERITONEAL, SUBCUTANEOUS, ORAL, Route [Carcinogen]: INTRAPERITONEAL, INTRAPERITONEAL, SUBCUTANEOUS, ORAL, Route [Promoter]: ORAL, Species: RAT, Strain/Sex: F344/MALE) and “forestomach: papilloma, squamous cell carcinoma” (Carcinogen: N-METHYL-N'-NITRO-N-NITROSOGUANIDINE, 70-25-7, Doses [Carcinogen]: 150 MG/KG BW IN 50% DMSO ONCE, Doses [Promoter]: 1% IN DIET BEGINNING 1 WK POST CARCINOGEN TREATMENT FOR 51 WK (STUDY DURATION: 52 WK), Route [Carcinogen]: GAVAGE, Route [Promoter]: ORAL, Species: RAT, Strain/Sex: F344/MALE).

Consider `Cc1ccc(C)c(O)c1`, for which, under setting [1], the outcome was “integumentary system (skin)”.
